Laboratory results: patent US20060159762A1, “Stable pharmaceutical composition comprising an active substance in the form of solid solution” (priority 2004, published 2006)

Assay: Comparative storage stability: total degradation products and related substances by HPLC
Assay type: physicochemical
Details: for increase of degradation products and related substances relative to the starting analysis, non-formulated active substance versus stable pharmaceutical composition (solid solution): 6 days storage on 60° C.
Description: (§1) Comparison of the total amount of degradation products and related substances in non-formulated active substance and in the stable pharmaceutical composition according to the present invention comprising the active substance in the form of solid solution is presented by the graph 1. The pharmaceutical composition is prepared as described in example 2. The amount of degradation products and related substances is determined by HPLC method. [drawing]
as §1, with “in” for “by the”, “2.” for “1.”, “5.” for “2.”, “[drawing] [drawing]” for “[drawing]”

COc1ccc2[n-]c([S+]([O-])Cc3ncc(C)c(OC)c3C)nc2c1.COc1ccc2[n-]c([S+]([O-])Cc3ncc(C)c(OC)c3C)nc2c1.[Mg+2] (stereo not drawn) [esomeprazole magnesium, Esomeprazole magnesium]
increase of degradation products and related substances relative to the starting analysis, non-formulated active substance versus stable pharmaceutical composition (solid solution) (composition prepared as described in example 2): four times higher | increase of degradation products and related substances relative to the starting analysis, non-formulated active substance versus stable pharmaceutical composition (solid solution) (composition prepared as described in example 5): > 10 times | increase of the amount of degradation products and related substances relative to the starting analysis, non-formulated active substance versus stable pharmaceutical composition (solid solution) (14 days storage on 40° C., composition prepared as described in example 2): three times higher
